ChEMBL document CHEMBL1201862, “PubChem BioAssay data set” (2004)
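Values below derive from 48-hour exposures of cells grown in 96-well plates, with endpoints linearly interpolated between the two concentrations bracketing the appropriate inhibition level. Here, GI50 denotes the concentration required for 50% inhibition of growth.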 Activity calls are given as the source filed them. Cut-off read from the data, not from the text of the source: active = GI50 up to about 1.1 µM and inactive = higher.

Key:
Experiment in all cases: NCI tumour cell line growth inhibition, 48 h
A498 = test system: A498
LOX IMVI = test system: LOX IMVI
NCI-H23 = test system: NCI-H23
KM12 = test system: KM12
NCI-H226 = test system: NCI-H226
NCI-H460 = test system: NCI-H460
M14 = test system: M14
ACHN = test system: ACHN
HL-60 = test system: HL-60
SW-620 = test system: SW-620
T47D = test system: T47D
NCI/ADR-RES = test system: NCI/ADR-RES
CAKI-1 = test system: CAKI-1
MOLT-4 = test system: MOLT-4
SN12C = test system: SN12C
SF-295 = test system: SF-295
HT-29 = test system: HT-29
Malme-3M = test system: Malme-3M
UACC-62 = test system: UACC-62
OVCAR-8 = test system: OVCAR-8
Hs-578T = test system: Hs-578T
A549 = test system: A549
HCT-15 = test system: HCT-15
CCRF-CEM = test system: CCRF-CEM
RPMI-8226 = test system: RPMI-8226
SF-539 = test system: SF-539
HCT-116 = test system: HCT-116
MDA-MB-435 = test system: MDA-MB-435
K562 = test system: K562
SF-268 = test system: SF-268
HOP-62 = test system: HOP-62
OVCAR-4 = test system: OVCAR-4
TK-10 = test system: TK-10
UO-31 = test system: UO-31
MDA-MB-231 = test system: MDA-MB-231
NCI-H522 = test system: NCI-H522
BT-549 = test system: BT-549
PC-3 = test system: PC-3
HCC 2998 = test system: HCC 2998
HOP-92 = test system: HOP-92
SK-MEL-5 = test system: SK-MEL-5
COLO 205 = test system: COLO 205
MCF7 = test system: MCF7
SNB-75 = test system: SNB-75
786-0 = test system: 786-0
SNB-19 = test system: SNB-19
OVCAR-3 = test system: OVCAR-3
EKVX = test system: EKVX
IGROV-1 = test system: IGROV-1
SK-MEL-2 = test system: SK-MEL-2
U-251 = test system: U-251
OVCAR-5 = test system: OVCAR-5
DU-145 = test system: DU-145
UACC-257 = test system: UACC-257
SK-OV-3 = test system: SK-OV-3

SMILES: CCOC(=O)NNC(=O)C1CSC(c2ccccc2)N1C(C)=O (stereo not given)
- GI50 (A498): > 100 µM (inactive)
- GI50 (LOX IMVI): > 100 µM (inactive)
- GI50 (NCI-H23): > 100 µM (inactive)
- GI50 (KM12): > 100 µM (inactive)
- GI50 (NCI-H226): > 100 µM (inactive)
- GI50 (NCI-H460): > 100 µM (inactive)
- GI50 (M14): > 100 µM (inactive)
- GI50 (ACHN): > 100 µM (inactive)
- GI50 (HL-60): > 100 µM (inactive)
- GI50 (SW-620): > 100 µM (inactive)
- GI50 (T47D): > 100 µM (inactive)
- GI50 (NCI/ADR-RES): > 100 µM (inactive)
- GI50 (CAKI-1): > 100 µM (inactive)
- GI50 (MOLT-4): > 100 µM (inactive)
- GI50 (SN12C): > 100 µM (inactive)
- GI50 (SF-295): > 100 µM (inactive)
- GI50 (HT-29): > 100 µM (inactive)
- GI50 (Malme-3M): > 100 µM (inactive)
- GI50 (UACC-62): > 100 µM (inactive)
- GI50 (OVCAR-8): > 100 µM (inactive)
- GI50 (Hs-578T): > 100 µM (inactive)
- GI50 (A549): > 100 µM (inactive)
- GI50 (HCT-15): > 100 µM
- GI50 (CCRF-CEM): > 100 µM (inactive)
- GI50 (RPMI-8226): > 100 µM (inactive)
- GI50 (SF-539): > 100 µM (inactive)
- GI50 (HCT-116): > 100 µM (inactive)
- GI50 (MDA-MB-435): > 100 µM (inactive)
- GI50 (K562): > 100 µM (inactive)
- GI50 (SF-268): > 100 µM (inactive)
- GI50 (HOP-62): > 100 µM (inactive)
- GI50 (OVCAR-4): > 100 µM (inactive)
- GI50 (TK-10): > 100 µM (inactive)
- GI50 (UO-31): > 100 µM (inactive)
- GI50 (MDA-MB-231): > 100 µM (inactive)
- GI50 (NCI-H522): > 100 µM (inactive)
- GI50 (BT-549): > 100 µM (inactive)
- GI50 (PC-3): > 100 µM (inactive)
- GI50 (HCC 2998): > 100 µM (inactive)
- GI50 (HOP-92): 82.2 µM (inactive)
- GI50 (SK-MEL-5): > 100 µM (inactive)
- GI50 (COLO 205): > 100 µM (inactive)
- GI50 (MCF7): > 100 µM (inactive)
- GI50 (SNB-75): > 100 µM (inactive)
- GI50 (786-0): > 100 µM (inactive)
- GI50 (SNB-19): > 100 µM (inactive)
- GI50 (OVCAR-3): > 100 µM (inactive)
- GI50 (EKVX): > 100 µM (inactive)
- GI50 (IGROV-1): > 100 µM (inactive)
- GI50 (SK-MEL-2): > 100 µM (inactive)
- GI50 (U-251): > 100 µM (inactive)
- GI50 (OVCAR-5): > 100 µM (inactive)
- GI50 (DU-145): > 100 µM (inactive)
- GI50 (UACC-257): > 100 µM (inactive)
- GI50 (SK-OV-3): > 100 µM (inactive)
